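Method: 48-hour compound exposure of cells in 96-well plates, five concentrations, linear interpolation of endpoints. Here, GI50 denotes the concentration required for 50% inhibition of growth.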 The source made the active and inactive calls. Cut-off read from the data, not from the text of the source: active = GI50 up to about 1.1 µM and inactive = higher.
Experiments:
Assay in all cases: inhibition of tumour cell growth, NCI panel, 48 h
[1] = system: SN12C
[2] = system: HT-29
[3] = system: A498
[4] = system: SW-620
[5] = system: SK-MEL-2
[6] = system: OVCAR-3
[7] = system: XF498
[8] = system: OVCAR-8
[9] = system: ACHN
[10] = system: UACC-257
[11] = system: SF-539
[12] = system: EKVX
[13] = system: SNB-75
[14] = system: DMS-273
[15] = system: NCI-H460
[16] = system: SF-268
[17] = system: SK-OV-3
[18] = system: M19-MEL

Measured: GI50

CCN1CCC(O)(c2ccc(Cl)c(Cl)c2)C(C(=O)c2ccc(Cl)c(Cl)c2)C1 (stereo unspecified)
inactive: [1] 17.8 µM | [2] 18.2 µM | [3] 21.5 µM | [4] 19.5 µM | [5] 17.3 µM | [6] 13.7 µM | [7] 19.2 µM | [8] 19.8 µM | [9] 13.3 µM | [10] 18.2 µM | [11] 17.7 µM | [12] 18.5 µM | [13] 14.3 µM | [14] 18.1 µM | [15] 21.3 µM | [16] 18.2 µM | [17] 18.2 µM

CCOC(=O)/C(=C/c1cccc(C#N)c1)N(CC)CC
inactive: [1] > 100 µM | [2] > 100 µM | [3] > 100 µM | [4] > 100 µM | [5] > 100 µM | [7] > 100 µM | [8] > 100 µM | [9] > 100 µM | [10] > 100 µM | [11] > 100 µM | [12] > 100 µM | [13] > 100 µM | [18] > 100 µM | [15] > 100 µM | [16] > 100 µM | [17] > 100 µM

C[C@]12CC(C#N)C(=O)C(O)=C1CC[C@@H]1C2CC[C@@]2(C)C1CC[C@@H]2O (stereo partly specified)
inactive: [1] 60 µM | [2] > 100 µM | [3] 3.86 µM | [4] > 100 µM | [5] 51.8 µM | [6] 65.5 µM | [7] 18.8 µM | [8] > 100 µM | [9] 47.2 µM | [10] 71.1 µM | [11] 46.1 µM | [12] 34.8 µM | [13] 9.91 µM | [14] 17.3 µM | [15] 41.8 µM | [16] 41.7 µM | [17] 33.2 µM

CCOc1ccc(/C=C2/C(=O)N=C(N)N=C2N)cc1OCC
inactive: [1] > 100 µM | [2] > 100 µM | [4] > 100 µM | [5] > 100 µM | [6] > 100 µM | [7] > 100 µM | [8] > 100 µM | [9] > 100 µM | [10] > 100 µM | [12] > 100 µM | [13] > 100 µM | [18] > 100 µM | [14] > 100 µM | [15] > 100 µM | [17] > 100 µM

CC12CCC(=O)N1c1cccnc1N2 (stereo unspecified)
inactive: [1] > 100 µM | [2] > 100 µM | [3] > 100 µM | [4] > 100 µM | [5] > 100 µM | [6] > 100 µM | [7] > 100 µM | [8] > 100 µM | [9] > 100 µM | [10] > 100 µM | [11] > 100 µM | [12] > 100 µM | [13] > 100 µM | [18] > 100 µM | [15] > 100 µM | [16] > 100 µM | [17] > 100 µM

NC(=O)N/N=C(/c1nc2ccc([N+](=O)[O-])cc2nc1O)C(O)c1ccco1 (stereo unspecified)
inactive: [1] 17.4 µM | [2] 46.2 µM | [4] 44.6 µM | [6] > 100 µM | [7] > 100 µM | [8] > 100 µM | [9] 28.4 µM | [10] > 100 µM | [11] 15.8 µM | [13] 97.9 µM | [18] 79.8 µM | [14] 20.5 µM | [15] 59.6 µM | [16] 63.4 µM | [17] > 100 µM

O=c1[nH][nH]c(=O)[nH]1
inactive: [2] > 100 µM | [4] > 100 µM | [5] > 100 µM | [6] > 100 µM | [7] > 100 µM | [10] > 100 µM | [11] > 100 µM | [12] > 100 µM | [13] > 100 µM | [18] > 100 µM | [14] > 100 µM | [15] > 100 µM | [16] > 100 µM | [17] > 100 µM

From ChEMBL document CHEMBL1201862, “PubChem BioAssay data set” (2004)
